The results in this text go back to patent publication US10314827B2, “Methods of use of cyclopamine analogs” (Infinity Pharmaceuticals, Inc., priority 2006, dated 2019).

The first assay deals with Hedgehog pathway. Nature of the assay: C3H10T1/2 osteoblast differentiation assay (alkaline phosphatase readout). Type of assay: cell-based, Mouse. To be noted: C3H10T1/2 cells, sonic Hedgehog 250 ng/ml, AP activity normalized to total protein; read-out: Differentiation Assay EC50 (approximate EC50 for inhibition). From the text: Hedgehog pathway specific cancer cell killing effects may be ascertained using the following assay. C3H10T1/2 cells differentiate into osteoblasts when contacted with the sonic hedgehog peptide (Shh-N). Upon differentiation; these osteoblasts produce high levels of alkaline phosphatase (AP) which can be measured in an enzymatic assay (Nakamura et al., X BBRC (1997) 237:465). Compounds that block the differentiation of C3H10T1/2 into osteoblasts (a Shh dependent event) can therefore be identified by a reduction in AP production (van der Horst et al., Bone (2003) 33:899). The assay details are described below. The results approximate (EC50 for inhibition) of the differentiation assay is shown below in Table 1.
Mouse embryonic mesoderm fibroblasts C3H10T1/2 cells (obtained from ATCC) were cultured in Basal MEM Media (Gibco/Invitrogen) supplemented with 10% heat inactivated FBS (Hyclone), 50 units/ml penicillin and 50 ug/ml streptomycin (Gibco/Invitrogen) at 37° C. With 5% CO2 in air atmosphere.
C3H10T1/2 cells were plated in 96 wells with a density of 8×10^3 cells/well. Cells were grown to confluence (72 hrs). After sonic Hedgehog (250 ng/ml), and/or compound treatment, the cells were lysed in 110 μL of lysis buffer (50 mm Tris ph 7.4, 0.1% tritonx100), plates were sonicated and lysates spun through 0.2 μm PVDF plates (Corning). 40 μL of lysates was assayed for AP activity in alkaline buffer solution (Sigma) containing 1 mg/ml p-Nitrophenyl Phosphate. After incubating for 30 min at 37° C., the plates were read on an Envision plate reader at 405 nm. Total protein was quantified with a BCA protein assay kit from Pierce according to manufacturer's instructions. AP activity was normalized against total protein.
For `CC1=C2C[C@H]3[C@@H](CC=C4C[C@@H](OCc5ccccc5)CC[C@@]43C)[C@@H]2CC[C@@]2(C1)O[C@@H]1C[C@H](C)CN(C(=O)OCc3ccccc3)[C@H]1[C@H]2C` [Compound 7], the EC50 is greater than 100 nM.

For the molecule `CC1=C2C[C@H]3[C@@H](CC[C@@H]4CC(=O)CC[C@@]43C)[C@@H]2CC[C@@]2(C1)O[C@@H]1C[C@H](C)CN(CCNCC(=O)c3ccccc3)[C@H]1[C@H]2C` [Compound 13], the EC50 was less than 20 nM. Still for that read-out and setting: for `CC1=C2C[C@H]3[C@@H](CCC4=CC(=O)CC[C@@]43C)[C@@H]2CC[C@@]2(C1)O[C@@H]1C[C@H](C)CN(CCN(C)C)[C@H]1[C@H]2C` [Compound 20] the value was less than 20 nM.

The same assay, now with this note: Mus musculus, C3H 10T1/2; C3H10T1/2 cells, sonic Hedgehog 250 ng/ml, AP activity normalized to total protein; read-out: Differentiation Assay EC50 (approximate EC50 for inhibition).
Take `CC1=C2C[C@H]3[C@@H](CC[C@@H]4CC(=O)CC[C@@]43C)[C@@H]2CC[C@@]2(C1)O[C@@H]1C[C@H](C)CN(CCNC(=O)CCc3ccccc3)[C@H]1[C@H]2C` [Compound 23]: the EC50 is less than 20 nM. Still for that read-out and setting: for `CC1=C2C[C@H]3[C@@H](CC[C@@H]4CC(=O)CC[C@@]43C)[C@@H]2CC[C@@]2(C1)O[C@@H]1C[C@H](C)CN[C@H]1[C@H]2C` [Compound 1] the value was less than 20 nM; for `CC1=C2C[C@H]3[C@@H](CC[C@@H]4C[C@H](NS(C)(=O)=O)CC[C@@]43C)[C@@H]2CC[C@]12O[C@@H]1C[C@H](C)CN[C@H]1[C@H]2C` [Compound 55], less than 20 nM. Same read-out and setting: for `CC1=C2C[C@H]3[C@@H](CC[C@@H]4CC(=O)CC[C@@]43C)[C@@H]2CC[C@@]2(C1)O[C@@H]1C[C@H](C)CN(C(C)C)[C@H]1[C@H]2C` [Compound 10] the value was greater than 100 nM. The same measure, in the same setting: the value for `CC(=O)N(C)CCN1C[C@@H](C)C[C@H]2O[C@]3(CC[C@@H]4C(=C(C)C3)C[C@H]3[C@H]4CC[C@@H]4CC(=O)CC[C@@]43C)[C@H](C)[C@@H]21` [Compound 22] was less than 20 nM; that for `CC1=C2C[C@H]3[C@@H](CC[C@@H]4CCCC[C@@]43C)[C@@H]2CC[C@@]2(C1)O[C@@H]1C[C@H](C)CN[C@H]1[C@H]2C` [Compound 9] was greater than 100 nM; that for `CC(=O)O[C@H]1CC[C@@]2(C)[C@H](CC[C@H]3[C@@H]4CC[C@@]5(CC(C)=C4C[C@@H]32)O[C@@H]2C[C@H](C)CN[C@H]2[C@H]5C)C1` [Compound 35] was less than 20 nM. Turning to `CC1=C2C[C@H]3[C@@H](CC[C@@H]4CC(=O)CC[C@@]43C)[C@@H]2CC[C@@]2(C1)O[C@@H]1C[C@H](C)CN(CCN(C)C(=O)CCc3ccccc3)[C@H]1[C@H]2C` [Compound 24], the EC50 is less than 20 nM. Still for that read-out and setting: for `CC(=O)NCCN1C[C@@H](C)C[C@H]2O[C@]3(CC[C@@H]4C(=C(C)C3)C[C@H]3[C@H]4CC[C@@H]4CC(=O)CC[C@@]43C)[C@H](C)[C@@H]21` [Compound 21] the value was 20 to 100 nM.

As a reminder, the EC50 is the concentration giving half of the maximal effect.
